Drawing on ChEMBL document CHEMBL1909046, “DrugMatrix in vitro pharmacology data”, this text covers IC50 and Ki for 12 compounds.

Assay [1] has as its target T1, Calcitonin receptor (Homo sapiens, UniProt P30988). Also: in other assays of this panel Not Active means under 50% inhibition at 10 µM.
T1 sequence (P30988 whole entry): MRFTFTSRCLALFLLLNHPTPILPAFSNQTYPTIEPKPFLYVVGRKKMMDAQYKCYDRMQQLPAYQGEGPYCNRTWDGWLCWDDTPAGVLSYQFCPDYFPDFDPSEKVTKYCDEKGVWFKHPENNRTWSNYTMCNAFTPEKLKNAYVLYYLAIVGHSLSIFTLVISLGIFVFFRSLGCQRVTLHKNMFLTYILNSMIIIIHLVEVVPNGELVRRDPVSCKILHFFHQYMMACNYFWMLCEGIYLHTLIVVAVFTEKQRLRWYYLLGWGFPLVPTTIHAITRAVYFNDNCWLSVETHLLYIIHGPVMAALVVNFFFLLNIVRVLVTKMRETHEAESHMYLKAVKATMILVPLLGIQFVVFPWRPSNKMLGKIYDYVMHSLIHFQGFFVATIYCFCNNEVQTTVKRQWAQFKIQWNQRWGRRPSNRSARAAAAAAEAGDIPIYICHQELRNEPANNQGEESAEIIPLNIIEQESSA
Format: cell membranes, Membrane. As to conditions: t47d.

The target of assay [2] is T2, C-X-C chemokine receptor type 2 (Homo sapiens, UniProt P25025). Also: in other assays of this panel Not Active means under 50% inhibition at 10 µM.
T2 sequence (P25025 whole entry): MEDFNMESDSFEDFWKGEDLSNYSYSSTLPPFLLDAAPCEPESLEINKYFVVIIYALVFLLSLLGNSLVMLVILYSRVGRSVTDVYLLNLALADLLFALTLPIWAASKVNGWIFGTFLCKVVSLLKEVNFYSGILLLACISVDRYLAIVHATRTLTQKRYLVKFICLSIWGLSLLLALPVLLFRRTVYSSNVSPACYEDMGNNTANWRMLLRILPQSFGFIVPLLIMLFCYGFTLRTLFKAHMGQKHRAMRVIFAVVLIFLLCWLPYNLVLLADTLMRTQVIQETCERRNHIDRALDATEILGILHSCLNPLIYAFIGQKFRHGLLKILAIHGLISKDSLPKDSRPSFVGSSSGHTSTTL
In kind it is cell membranes, Membrane. As to conditions: cho-k1.

The target in assay [3] is D(3) dopamine receptor (Homo sapiens, UniProt P35462). The assay can be described thus: DRUGMATRIX: Dopamine D3 radioligand binding (ligand: [3H] Spiperone). In kind it is cell membranes, CHO, Membrane.
Assay [4] concerns the target Beta-3 adrenergic receptor (Homo sapiens, UniProt P13945). As to the kind of experiment: DRUGMATRIX: Adrenergic beta3 radioligand binding (ligand: [125I] Cyanopindolol). Format: cell membranes, HEK293, Membrane. As to conditions: hek293; Not Active = under 50% inhibition at 10 µM.
Assay [5] deals with T3, D(4) dopamine receptor (Homo sapiens, UniProt P21917).
T3 sequence (P21917 whole entry): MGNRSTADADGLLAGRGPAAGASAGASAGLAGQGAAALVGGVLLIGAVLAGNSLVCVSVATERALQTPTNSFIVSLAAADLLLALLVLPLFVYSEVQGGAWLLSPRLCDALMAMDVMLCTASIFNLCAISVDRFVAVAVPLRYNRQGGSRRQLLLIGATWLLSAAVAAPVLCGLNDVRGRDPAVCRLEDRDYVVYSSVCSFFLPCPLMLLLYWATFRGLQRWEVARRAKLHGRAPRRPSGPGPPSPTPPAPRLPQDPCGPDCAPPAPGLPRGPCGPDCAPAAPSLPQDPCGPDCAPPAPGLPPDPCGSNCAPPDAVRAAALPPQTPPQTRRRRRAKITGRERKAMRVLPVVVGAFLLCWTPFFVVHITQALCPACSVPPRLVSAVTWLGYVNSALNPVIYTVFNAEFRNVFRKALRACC
As to the kind of experiment: DRUGMATRIX: Dopamine D4.2 radioligand binding (ligand: [3H] Spiperone). In kind it is cell membranes, CHO-K1, Membrane. As to conditions: cho-k1; Not Active = under 50% inhibition at 10 µM.

Assay [6] deals with T4, B2 bradykinin receptor (Homo sapiens, UniProt P30411).
T4 sequence (P30411 whole entry): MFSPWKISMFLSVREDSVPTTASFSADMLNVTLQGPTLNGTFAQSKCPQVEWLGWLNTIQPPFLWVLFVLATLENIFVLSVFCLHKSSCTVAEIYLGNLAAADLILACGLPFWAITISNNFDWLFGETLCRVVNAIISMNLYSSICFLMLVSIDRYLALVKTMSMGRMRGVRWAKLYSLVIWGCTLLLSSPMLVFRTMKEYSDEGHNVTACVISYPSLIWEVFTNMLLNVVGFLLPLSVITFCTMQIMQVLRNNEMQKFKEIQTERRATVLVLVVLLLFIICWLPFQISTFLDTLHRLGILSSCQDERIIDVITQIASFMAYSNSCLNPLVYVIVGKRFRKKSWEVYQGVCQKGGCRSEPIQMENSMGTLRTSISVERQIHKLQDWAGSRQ
In kind it is cell membranes, Membrane. As to conditions: chem-1.

Assay [7] in a line: DRUGMATRIX: Glutamate, NMDA, Phencyclidine radioligand binding (ligand: [3H] TCP). Format: cell membranes, Rattus norvegicus, Wistar, Cerebral cortex, Membrane. As to conditions: Not Active = under 50% inhibition at 10 µM.

Chain of D(3) dopamine receptor (P35462 whole entry): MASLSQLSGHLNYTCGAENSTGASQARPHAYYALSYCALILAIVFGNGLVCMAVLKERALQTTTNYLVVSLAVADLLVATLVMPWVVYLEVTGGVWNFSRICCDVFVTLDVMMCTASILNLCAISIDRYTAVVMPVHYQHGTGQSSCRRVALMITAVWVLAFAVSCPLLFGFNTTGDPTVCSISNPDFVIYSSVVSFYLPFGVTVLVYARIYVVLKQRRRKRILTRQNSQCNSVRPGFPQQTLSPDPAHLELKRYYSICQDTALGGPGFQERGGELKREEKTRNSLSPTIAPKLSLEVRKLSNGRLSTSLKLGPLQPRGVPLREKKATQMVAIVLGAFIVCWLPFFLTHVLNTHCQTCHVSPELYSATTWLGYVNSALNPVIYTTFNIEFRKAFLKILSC
Chain of Beta-3 adrenergic receptor (P13945 whole entry): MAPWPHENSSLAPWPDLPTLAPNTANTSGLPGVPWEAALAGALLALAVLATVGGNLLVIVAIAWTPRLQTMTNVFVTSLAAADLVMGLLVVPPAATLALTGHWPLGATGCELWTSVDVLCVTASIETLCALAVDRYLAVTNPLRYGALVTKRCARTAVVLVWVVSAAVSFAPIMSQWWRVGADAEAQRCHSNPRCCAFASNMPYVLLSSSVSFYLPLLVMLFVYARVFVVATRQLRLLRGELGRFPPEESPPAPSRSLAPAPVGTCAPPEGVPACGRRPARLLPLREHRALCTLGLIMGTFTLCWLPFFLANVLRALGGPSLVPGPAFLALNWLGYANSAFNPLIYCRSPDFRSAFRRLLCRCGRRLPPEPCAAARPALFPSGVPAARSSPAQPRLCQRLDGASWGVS

Usually IC50 stands for the concentration that inhibits the measured activity by half. The Ki is a measure of affinity in units of concentration, obtained from inhibition or displacement. As to `NC(=O)N1c2ccccc2CC(=O)c2ccccc21` [OXCARBAZEPINE], the IC50 result in assay [1], in assay [2], in assay [3] (cho), in assay [4], in assay [5] and in assay [6] was “Not Active” each time. Further, the IC50 result in assay [7] is reported as “Not Active”. For the same compound, in assay [7], the Ki entry is “Not Active”.
Consider `COc1ccnc(C[S+]([O-])c2nc3ccc(OC(F)F)cc3[nH]2)c1OC` (centres undefined) [PANTOPRAZOLE], for which the IC50 result in assay [1], in assay [2], in assay [3] (cho), in assay [4], in assay [5] and in assay [6] was “Not Active” throughout. The IC50 result in assay [7] is “Not Active”. In assay [7], the Ki result is recorded as “Not Active”.
`NNCCc1ccccc1` [PHENELZINE]: the IC50 entry in assay [1], in assay [2], in assay [3] (cho), in assay [4], in assay [5] and in assay [6] was “Not Active” in each case. In addition, in assay [7], the IC50 entry is recorded as “Not Active”. Besides, the Ki entry in assay [7] was “Not Active”.
In the case of `CCc1ccc(CCOc2ccc(CC3SC(=O)NC3=O)cc2)nc1` (centres undefined) [PIOGLITAZONE], the IC50 result in assay [1], in assay [2], in assay [3] (cho), in assay [4], in assay [5] and in assay [6] was “Not Active” in each case. Also, in assay [7], the IC50 result is reported as “Not Active”. Also, the Ki result in assay [7] is recorded as “Not Active”.
Regarding `CCCNC(C)C(=O)Nc1ccccc1C` (centres undefined) [PRILOCAINE], the IC50 entry in assay [1], in assay [2], in assay [3] (cho), in assay [4], in assay [5] and in assay [6] was “Not Active” in each case. In addition, in assay [7], the IC50 result is on record as “Not Active”. Besides, the Ki result in assay [7] is “Not Active”.
Take `CCN(CC)CCNC(=O)c1ccc(N)cc1` [PROCAINAMIDE]: the IC50 result in assay [1], in assay [2], in assay [3] (cho), in assay [4], in assay [5] and in assay [6] was “Not Active” each time. The IC50 entry in assay [7] is “Not Active”. In addition, the Ki result in assay [7] is “Not Active”.
For the compound `CCN(CC)CCCC(C)Nc1c2ccc(Cl)cc2nc2ccc(OC)cc12` (centres undefined) [QUINACRINE], the IC50 result in assay [1] is “Not Active”; in assay [2], “Not Active”; in assay [3] (read-out: IC50), 1320 nM; in assay [4], “Not Active”; in assay [5], “Not Active”; in assay [6] it was “Not Active”. For the same compound, the IC50 result in assay [7] is “Not Active”. The Ki in assay [3] (read-out: Ki) is 448 nM; in assay [7] it was “Not Active”.
Regarding `C[C@]12C=CC(=O)C=C1CC[C@H]1[C@@H]3C[C@@H](O)[C@](O)(C(=O)CO)[C@@]3(C)C[C@H](O)[C@@]12F` [TRIAMCINOLONE], the IC50 entry in assay [1], in assay [2], in assay [3] (cho), in assay [4], in assay [5] and in assay [6] was “Not Active” throughout. Further, in assay [7], the IC50 result is recorded as “Not Active”. Further, the Ki result in assay [7] is listed as “Not Active”.
Consider `CC[C@]1(O)C[C@@H]2CN(CCc3c([nH]c4ccccc34)[C@@](C(=O)OC)(c3cc4c(cc3OC)N(C)[C@H]3[C@@](O)(C(N)=O)[C@H](O)[C@]5(CC)C=CCN6CC[C@]43[C@@H]65)C2)C1` [VINDESINE], for which the IC50 result in assay [1], in assay [2], in assay [3] (cho), in assay [4], in assay [5] and in assay [6] was “Not Active” throughout. Further, in assay [7], the IC50 entry is given as “Not Active”. The Ki entry in assay [7] was “Not Active”.
Turning to `CCN(C(C)=O)c1cccc(-c2ccnc3c(C#N)cnn23)c1` [ZALEPLON], the IC50 entry in assay [1], in assay [2], in assay [3] (cho), in assay [4], in assay [5] and in assay [6] was “Not Active” each time. In addition, in assay [7], the IC50 result is listed as “Not Active”. The Ki entry in assay [7] is “Not Active”.
In the case of COBALTOUS CHLORIDE, the IC50 entry in assay [1], in assay [2], in assay [3] (cho), in assay [4], in assay [5] and in assay [6] was “Not Active” each time. Further, the IC50 result in assay [7] is recorded as “Not Active”. For the same compound, the Ki result in assay [1], in assay [2], in assay [3] (cho), in assay [4], in assay [5] and in assay [6] was “Not Active” in each case. Moreover, the inhibition constant (Ki) entry in assay [7] is recorded as “Not Active”.
Consider COLISTIN, for which the IC50 result in assay [1], in assay [2], in assay [3] (cho), in assay [4], in assay [5] and in assay [6] was “Not Active” in each case. The IC50 result in assay [7] is “Not Active”. Further, the Ki entry in assay [1], in assay [2], in assay [3] (cho), in assay [4], in assay [5] and in assay [6] was “Not Active” each time. Also, the Ki entry in assay [7] is reported as “Not Active”.
